Reference: patent publication US20160109432A1, “METHODS AND MATERIALS FOR ASSESSING PLURIPOTENCY OF STEM CELL POPULATIONS” (Mayo Foundation for Medical Education and Research, priority 2014, published 2016)

Tests used:
[1] = system: human induced pluripotent stem cells; experiment: Etoposide sensitivity assay (ESA), Annexin V/PI flow cytometry; type: cell-based; settings: for EC50: Homo sapiens, 24 h
Protocol: An assay for assessing pluripotency or for releasing a stem cell population for clinical diagnostic or therapeutic use can include obtaining a series of cell samples from the population being assessed. Each of these samples can be contacted with an increasing concentration of one or more DNA damaging agent(s). Any appropriate length of time can be used for the incubation period. For example, the cells can be incubated as 37° C. for between about 30 minutes and about 48 hours (e.g., between about 30 minutes and about 36 hours, between about 30 minutes and about 24 hours, or between about 1 hour and about 24 hours). After this contacting step, the cells can be evaluated using, for example, flow cytometry to determine how susceptible the cells are to apoptosis. In some cases, flow cytometry can be carried out as follows. Briefly, pluripotent stem cells can be seeded in plates (e.g., 24 well plates) and treated with etoposide (Sigma-Aldrich) or DMSO for a period of time (e.g., about 24 hours) at, for example, about 50% confluence. Media and cells can be stained with Annexin V FITC/PI and analyzed via flow cytometry (e.g., via a Gallios (Beckman Coulter) flow cytometer). Data analysis can be performed using Kaluza (Beckman Coulter) software and normalized by dividing the triplicate means (viable non-staining cells) by the corresponding DMSO control. Human pluripotent stem cell clones were assessed for etoposide sensitivity as follows. Mechanically processed hiPSC's were seeded onto a 24-well plate (1×60 mm dish: 1×24-well plate), maintained for 3-5 days, and subsequently treated with etoposide (1, 10, 50, 100, 250, 500, and 1,000 nM, all performed in triplicate wells) or vehicle control (DMSO) for 24 hours. Conditioned media was collected into appropriately labeled 12×75 mm flow tubes, and 200 μL of TryPLE was added to each well. Following a brief incubation at 37° C. (5-10 minutes), 1 mL of pre-warmed (37° C.) FAC's buffer (4 mM EDTA, 0.5% FBS, 1×DPBS pH 7.4 w/o Ca^2+, Mg^2+) was added to each well. The total well contents were transferred to their corresponding conditioned media tubes, and all tubes were spun down at 400×G for 5 minutes. Tubes were washed 1× with ice-cold Annexin Binding Buffer (ABB, 10 mM HEPES, 2.5 mM CaCl2, 140 mM NaCl, pH 7.4) and stained with Annexin-FITC (BD 556420, 5 μL in 100 μL total ABB per tube) for 30 minutes on ice while protected from light. All tubes were washed 1× in ABB, and the resulting cell pellets were resuspended in 400 μL of ABB supplemented with 1 μL of 1 mg/mL propidium iodide (Sigma-Aldrich, P4864). Samples were immediately assayed by flow cytometry (Gallios, Beckman Coulter), and data were subsequently analyzed for percent viability using Kaluza software (Beckman Coulter).

[2] = system: cardiomyocytes differentiated from hiPSC's; experiment: Etoposide sensitivity assay during cardiomyocyte differentiation of hiPSC's; type: cell-based, human; settings: mature, beating cardiomyocytes (Day 9)

COc1cc([C@@H]2c3cc4c(cc3[C@@H](O[C@@H]3O[C@@H]5CO[C@@H](C)O[C@H]5[C@H](O)[C@H]3O)[C@H]3COC(=O)[C@H]23)OCO4)cc(OC)c1O [etoposide]
EC50 ([1]; cleaned (C) hiPSC cultures after removal of poor quality clones/cells, 24 hours): < 0.3 µM | EC50 ([1]; poor quality clones/cells from unclean (UC) hiPSC cultures, feeder free): > 0.3 µM | etoposide sensitivity ([1]; Sendai virus derived hiPSC clones compared to lentivirus reprogrammed clones, 126 clones): significant decrease in etoposide sensitivity | etoposide sensitivity ([1]; hiPSC clones of poor quality and cellular differentiation, feeder free conditions): reduced or negligible etoposide sensitivity | sensitivity to etoposide ([1]; hiPSC lines RT 4.1 and RT 6.21 compared with other hiPSC lines, 24 hours): greatest sensitivity | sensitivity to etoposide [2]: near complete lack of sensitivity
